Common to all, as to format: cell-based
Test [1] concerns the target T1, hNaV1.2 (Homo sapiens, UniProt Q99250).
T1 construct: host or cells: HEK293
Put plainly: Automated whole-cell patch-clamp (QPatch 16X), hNaV1.2. The note with it: HEK293 cells expressing hNaV1.2 + β1 subunit; QPatch 16X; holding −80 mV, step to 0 mV; peptide incubated 2 min; 0.1% BSA; mean, SEM and n (2-7). The method, then:
(§1) Human embryonic kidney 293 (HEK293) cells stably expressing recombinant hNaV1.2, hNaV1.3 and hNaV1.7 and the β1 auxiliary subunit (Scottish Biomedical Drug Discovery, Glasgow, UK) were cultured in Minimal Essential medium (MEM) (Sigma-Aldrich, MO, United States) supplemented with 10% v/v FBS-New Zealand origin (Assay Matrix), 2 mM L-glutamine and selection antibiotics as per manufacturer’s recommendation. The HEK293 cells heterologously expressing mNaV1.7 and F813G-mNaV1.7 were generously provided by Prof Irina Vetter and were cultured in Minimal Essential medium (MEM) (Sigma-Aldrich, MO, United States) supplemented with 10% v/v FBS-New Zealand origin (Assay Matrix), 2 mM L-glutamine and hygromycin 100 μg/mL.
(§2) NaV channel currents from HEK293 cells stably expressing NaV subtypes and the β1 auxiliary subunit were recorded using an automated whole-cell patch clamp system QPatch 16X (Sophion Bioscience A/S, Ballerup, Denmark). As per the manufacturer’s guidelines, the cells were cultured for 48 h to achieve ∼80% confluency, detached using Detachin (Genlantis) and resuspended to 5 × 10^6 cells/mL in serum free media [CHO-cell SFM (Life Technologies), 25 mM HEPES and 100 U/mL penicillin/streptomycin]. The extracellular solution comprised (in mM) 1 CaCl2, 1 MgCl2, 5 HEPES, 3 KCl, 140 NaCl and 20 TEA-Cl, with the pH adjusted to 7.3 with NaOH. The intracellular solution comprised (in mM) 140 CsF, 1 EGTA, 5 CsOH, 10 HEPES and 10 NaCl, with the pH adjusted to 7.3 with CsOH. The osmolarity of both solutions were adjusted to 320 mOsm with sucrose. Compounds were prepared in extracellular solution containing 0.1% bovine serum albumin (Sigma-Aldrich). To obtain the dose-response curves, cells were maintained at a holding potential −80 mV and Na^+ currents were elicited by […] voltage steps to 0 mV from a −120 mV conditioning pulse applied for […]. Increasing concentrations of the peptide were incubated with the cells at the holding potential for 2 min before the voltage protocol was applied.
(§3) The experimental data were analysed using QPatch Assay software v5.6.4 and GraphPad Prism 7.0 using a four-parameter Hill equation [Y = Bottom + (Top—Bottom)/(1 + 10^(Log IC50—X)* Hillslope)] to fit concentration response curves by non-linear regression analysis and Student’s t-test. Data are presented as means ± standard error of mean (SEM) with number of independent experiments stated and p < 0.05 is considered statistically significant. Statistically insignificant shift in the activity is denoted by “little” while small but statistically significant shift in the activity is denoted by “slight” throughout the manuscript.

Test [2] has as its target T2, hNaV1.3 (Homo sapiens, UniProt Q9NY46).
T2 construct: host or cells: HEK293
Kind of test: Automated whole-cell patch-clamp (QPatch 16X), hNaV1.3. The note with it: HEK293 cells expressing hNaV1.3 + β1 subunit; QPatch 16X; holding −80 mV, step to 0 mV; peptide incubated 2 min; 0.1% BSA; mean, SEM and n (3-12). The method, then:
as §1, §2, §3

For test [3], the target named is T3, hNaV1.7 (Homo sapiens, UniProt Q15858).
T3 construct: host or cells: HEK293
T3 sequence (Q15858 whole entry): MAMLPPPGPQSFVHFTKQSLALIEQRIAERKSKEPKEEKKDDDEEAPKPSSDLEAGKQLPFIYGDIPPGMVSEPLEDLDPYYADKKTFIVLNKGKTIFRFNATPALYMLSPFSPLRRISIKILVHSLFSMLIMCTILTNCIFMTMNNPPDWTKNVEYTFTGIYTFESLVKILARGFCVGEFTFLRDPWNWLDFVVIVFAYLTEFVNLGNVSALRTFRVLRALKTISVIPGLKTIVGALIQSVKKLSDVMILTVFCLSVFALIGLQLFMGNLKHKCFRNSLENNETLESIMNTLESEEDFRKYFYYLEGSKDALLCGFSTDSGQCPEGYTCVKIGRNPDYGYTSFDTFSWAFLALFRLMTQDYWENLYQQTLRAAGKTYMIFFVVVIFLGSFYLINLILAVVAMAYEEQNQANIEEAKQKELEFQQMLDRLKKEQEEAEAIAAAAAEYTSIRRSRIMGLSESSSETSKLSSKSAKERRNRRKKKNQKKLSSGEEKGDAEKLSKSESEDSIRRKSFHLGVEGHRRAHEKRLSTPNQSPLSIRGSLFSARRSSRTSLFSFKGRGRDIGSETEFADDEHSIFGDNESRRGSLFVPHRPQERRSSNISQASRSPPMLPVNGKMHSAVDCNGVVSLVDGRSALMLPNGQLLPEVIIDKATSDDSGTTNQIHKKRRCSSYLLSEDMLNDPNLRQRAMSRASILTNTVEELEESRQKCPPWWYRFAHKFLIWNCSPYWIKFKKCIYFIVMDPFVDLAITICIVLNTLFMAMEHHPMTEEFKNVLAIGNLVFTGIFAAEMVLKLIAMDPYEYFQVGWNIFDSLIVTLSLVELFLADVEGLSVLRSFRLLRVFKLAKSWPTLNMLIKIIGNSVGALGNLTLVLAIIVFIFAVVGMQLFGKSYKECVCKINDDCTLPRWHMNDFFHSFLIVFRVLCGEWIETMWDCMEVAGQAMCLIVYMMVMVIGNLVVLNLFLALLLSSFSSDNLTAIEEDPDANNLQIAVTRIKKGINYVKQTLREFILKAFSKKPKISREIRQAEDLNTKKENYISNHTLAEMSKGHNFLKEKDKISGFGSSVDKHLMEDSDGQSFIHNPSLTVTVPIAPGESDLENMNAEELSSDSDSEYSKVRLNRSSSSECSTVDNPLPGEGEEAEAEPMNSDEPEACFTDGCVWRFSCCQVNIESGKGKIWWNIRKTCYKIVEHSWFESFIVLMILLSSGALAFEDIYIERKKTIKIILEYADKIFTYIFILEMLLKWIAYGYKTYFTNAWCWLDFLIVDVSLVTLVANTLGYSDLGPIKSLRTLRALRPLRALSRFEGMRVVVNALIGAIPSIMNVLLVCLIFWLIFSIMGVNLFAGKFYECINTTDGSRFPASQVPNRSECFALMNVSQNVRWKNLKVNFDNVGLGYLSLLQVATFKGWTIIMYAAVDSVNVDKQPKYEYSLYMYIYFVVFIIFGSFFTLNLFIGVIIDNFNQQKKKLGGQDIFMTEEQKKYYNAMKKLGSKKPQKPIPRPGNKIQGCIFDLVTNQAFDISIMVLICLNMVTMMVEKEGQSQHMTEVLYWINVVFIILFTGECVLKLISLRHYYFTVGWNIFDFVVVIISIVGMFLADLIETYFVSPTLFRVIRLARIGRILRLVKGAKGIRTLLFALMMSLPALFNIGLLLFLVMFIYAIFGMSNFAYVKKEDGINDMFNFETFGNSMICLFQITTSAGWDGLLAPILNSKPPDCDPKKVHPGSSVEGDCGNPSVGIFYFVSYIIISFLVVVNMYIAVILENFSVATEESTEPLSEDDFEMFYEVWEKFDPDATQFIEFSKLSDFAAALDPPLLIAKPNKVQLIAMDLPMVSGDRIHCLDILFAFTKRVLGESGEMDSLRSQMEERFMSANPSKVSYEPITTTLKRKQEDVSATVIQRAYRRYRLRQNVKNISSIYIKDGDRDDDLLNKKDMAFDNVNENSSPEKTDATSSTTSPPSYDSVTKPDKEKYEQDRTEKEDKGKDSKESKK
T3 sequence (Q07699 19-218, further chain): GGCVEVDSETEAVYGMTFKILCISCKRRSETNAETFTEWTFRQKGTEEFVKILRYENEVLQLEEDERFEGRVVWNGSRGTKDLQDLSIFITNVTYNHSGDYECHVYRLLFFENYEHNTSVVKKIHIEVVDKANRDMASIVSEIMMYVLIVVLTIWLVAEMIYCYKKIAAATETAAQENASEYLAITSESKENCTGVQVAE
Put plainly: Automated whole-cell patch-clamp (QPatch 16X), hNaV1.7. Conditions: HEK293 cells expressing hNaV1.7 + β1 subunit; QPatch 16X; holding −80 mV, step to 0 mV; peptide incubated 2 min; 0.1% BSA; mean, SEM and n (3-9). The method, then: as §1, §2, §3

Here are results for three molecules from article PMC10682951, “Structure-function and rational design of a spider toxin Ssp1a at human voltage-gated sodium channel subtypes” (Frontiers in Pharmacology, 2023).

Bridge positions count the residues as written; N and C are the ends. Peptide text beside a SMILES is read from it.

T1 sequence (Q07699 19-218): as the sequence (Q07699 19-218, further chain) above
T1 sequence (Q99250 whole entry): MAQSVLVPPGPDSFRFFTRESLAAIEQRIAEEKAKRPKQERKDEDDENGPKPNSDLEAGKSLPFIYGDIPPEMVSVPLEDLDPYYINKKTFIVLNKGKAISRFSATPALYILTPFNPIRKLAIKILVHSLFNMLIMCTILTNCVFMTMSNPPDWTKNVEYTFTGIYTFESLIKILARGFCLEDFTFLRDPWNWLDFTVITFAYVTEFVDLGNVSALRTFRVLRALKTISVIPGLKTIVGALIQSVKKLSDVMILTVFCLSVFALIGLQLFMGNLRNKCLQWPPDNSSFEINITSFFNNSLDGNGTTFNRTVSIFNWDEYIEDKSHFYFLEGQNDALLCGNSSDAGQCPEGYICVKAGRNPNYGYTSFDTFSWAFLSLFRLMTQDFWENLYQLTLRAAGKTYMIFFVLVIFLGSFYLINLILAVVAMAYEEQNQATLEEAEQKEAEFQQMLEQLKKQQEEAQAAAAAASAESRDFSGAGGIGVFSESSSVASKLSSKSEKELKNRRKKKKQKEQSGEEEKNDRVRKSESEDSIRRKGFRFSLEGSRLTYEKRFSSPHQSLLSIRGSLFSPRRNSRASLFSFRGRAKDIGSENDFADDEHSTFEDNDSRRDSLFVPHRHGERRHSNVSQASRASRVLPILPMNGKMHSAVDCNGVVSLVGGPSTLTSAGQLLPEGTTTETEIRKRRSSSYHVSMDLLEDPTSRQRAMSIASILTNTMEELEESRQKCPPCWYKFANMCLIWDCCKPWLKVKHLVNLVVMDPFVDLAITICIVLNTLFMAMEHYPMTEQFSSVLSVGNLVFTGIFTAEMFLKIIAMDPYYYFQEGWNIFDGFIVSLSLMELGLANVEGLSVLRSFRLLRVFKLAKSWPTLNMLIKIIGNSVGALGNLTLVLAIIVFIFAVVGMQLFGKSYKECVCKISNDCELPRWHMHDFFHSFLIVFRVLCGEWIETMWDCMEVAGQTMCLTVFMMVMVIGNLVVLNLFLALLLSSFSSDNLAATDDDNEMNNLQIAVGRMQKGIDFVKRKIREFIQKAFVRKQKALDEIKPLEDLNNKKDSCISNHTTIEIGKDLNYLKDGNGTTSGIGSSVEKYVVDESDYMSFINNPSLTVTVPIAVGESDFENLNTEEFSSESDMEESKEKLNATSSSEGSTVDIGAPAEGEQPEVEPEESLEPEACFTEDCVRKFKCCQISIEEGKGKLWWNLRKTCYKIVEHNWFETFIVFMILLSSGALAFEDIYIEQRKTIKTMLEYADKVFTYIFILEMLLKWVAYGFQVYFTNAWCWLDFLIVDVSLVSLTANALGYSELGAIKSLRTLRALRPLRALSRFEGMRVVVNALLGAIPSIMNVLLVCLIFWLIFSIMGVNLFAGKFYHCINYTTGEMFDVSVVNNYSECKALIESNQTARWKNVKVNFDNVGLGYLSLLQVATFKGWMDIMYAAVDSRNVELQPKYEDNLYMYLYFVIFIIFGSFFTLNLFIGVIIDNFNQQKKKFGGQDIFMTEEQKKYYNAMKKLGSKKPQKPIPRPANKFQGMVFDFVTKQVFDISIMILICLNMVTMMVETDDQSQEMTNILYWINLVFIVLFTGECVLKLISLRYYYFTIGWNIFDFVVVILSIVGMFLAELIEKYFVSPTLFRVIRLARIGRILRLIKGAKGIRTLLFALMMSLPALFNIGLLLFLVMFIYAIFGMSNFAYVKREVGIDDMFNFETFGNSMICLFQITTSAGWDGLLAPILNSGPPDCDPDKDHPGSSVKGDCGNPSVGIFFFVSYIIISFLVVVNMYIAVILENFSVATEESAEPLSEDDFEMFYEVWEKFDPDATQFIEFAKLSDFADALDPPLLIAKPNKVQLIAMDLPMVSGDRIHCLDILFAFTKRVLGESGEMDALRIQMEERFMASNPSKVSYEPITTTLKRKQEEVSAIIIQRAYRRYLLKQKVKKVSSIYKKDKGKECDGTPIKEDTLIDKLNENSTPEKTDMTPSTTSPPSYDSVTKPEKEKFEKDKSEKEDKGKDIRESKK

`CC(C)C[C@H](NC(=O)[C@H](CC(=O)O)NC(=O)[C@H](Cc1ccc(O)cc1)NC(=O)[C@H](CCCNC(=N)N)NC(=O)[C@@H]1CSSC[C@@H]2NC(=O)[C@H](CCCCN)NC(=O)[C@H](CC(=O)O)NC(=O)[C@H](CC(N)=O)NC(=O)[C@H](CC(N)=O)NC(=O)[C@@H]3CCCN3C(=O)[C@H](CC(=O)O)NC(=O)[C@@H]3CSSC[C@H](NC(=O)[C@H](C(C)C)NC(=O)[C@H](Cc4ccc(O)cc4)NC(=O)CNC(=O)[C@H](CCC(=O)O)NC(=O)[C@H](CSSC[C@H](NC(=O)[C@H](CC(=O)O)NC(=O)CN)C(=O)N[C@@H](CC(C)C)C(=O)NCC(=O)N[C@@H](Cc4ccccc4)C(=O)N[C@@H](Cc4ccccc4)C(=O)N[C@@H](CO)C(=O)NCC(=O)N3)NC2=O)C(=O)N[C@@H](Cc2c[nH]cn2)C(=O)N[C@@H](Cc2c[nH]c3ccccc23)C(=O)N[C@@H](CCCCN)C(=O)N[C@@H](Cc2ccc(O)cc2)C(=O)N2CCC[C@H]2C(=O)N[C@@H](Cc2c[nH]c3ccccc23)C(=O)N1)C(=O)O` [W5F/N14D] (H-GDCLGFFSGCDPNNDKCCEGYVCHWKYPWCRYDL-OH; disulfide 3-18, 10-23, 17-30): the IC50 in test [1] came out at 735 nM; in test [2], 1200 nM; in test [3], 391 nM.
For `CC(C)C[C@H](NC(=O)[C@H](CC(=O)O)NC(=O)[C@H](Cc1ccc(O)cc1)NC(=O)[C@H](CCCNC(=N)N)NC(=O)[C@@H]1CSSC[C@@H]2NC(=O)[C@H](CCCCN)NC(=O)[C@H](CC(N)=O)NC(=O)[C@H](CC(N)=O)NC(=O)[C@H](CC(N)=O)NC(=O)[C@@H]3CCCN3C(=O)[C@H](CC(=O)O)NC(=O)[C@@H]3CSSC[C@H](NC(=O)[C@H](C(C)C)NC(=O)[C@H](Cc4ccc(O)cc4)NC(=O)CNC(=O)[C@H](CCC(=O)O)NC(=O)[C@H](CSSC[C@H](NC(=O)[C@H](CC(=O)O)NC(=O)CN)C(=O)N[C@@H](CC(C)C)C(=O)NCC(=O)N[C@@H](Cc4c[nH]c5ccccc45)C(=O)N[C@@H](Cc4ccccc4)C(=O)N[C@@H](CCCCN)C(=O)NCC(=O)N3)NC2=O)C(=O)N[C@@H](Cc2c[nH]cn2)C(=O)N[C@@H](Cc2c[nH]c3ccccc23)C(=O)N[C@@H](CCCCN)C(=O)N[C@@H](Cc2ccc(O)cc2)C(=O)N2CCC[C@H]2C(=O)N[C@@H](Cc2ccccc2)C(=O)N1)C(=O)O` [S7K/W28F] (H-GDCLGWFKGCDPNNNKCCEGYVCHWKYPFCRYDL-OH; disulfide 3-18, 10-23, 17-30), in that order: more than 3000 nM, more than 3000 nM and 1470 nM.
Regarding `CC(C)C[C@H](NC(=O)[C@H](CC(=O)O)NC(=O)[C@H](Cc1ccc(O)cc1)NC(=O)[C@H](CCCNC(=N)N)NC(=O)[C@@H]1CSSC[C@@H]2NC(=O)[C@H](CCCCN)NC(=O)[C@H](CC(N)=O)NC(=O)CNC(=O)[C@H](CC(N)=O)NC(=O)[C@@H]3CCCN3C(=O)[C@H](CC(=O)O)NC(=O)[C@@H]3CSSC[C@H](NC(=O)[C@H](C(C)C)NC(=O)[C@H](Cc4ccc(O)cc4)NC(=O)CNC(=O)[C@H](CCC(=O)O)NC(=O)[C@H](CSSC[C@H](NC(=O)[C@H](CC(=O)O)NC(=O)CN)C(=O)N[C@@H](CC(C)C)C(=O)NCC(=O)N[C@@H](Cc4c[nH]c5ccccc45)C(=O)N[C@@H](Cc4ccccc4)C(=O)N[C@@H](CO)C(=O)NCC(=O)N3)NC2=O)C(=O)N[C@@H](Cc2c[nH]cn2)C(=O)N[C@@H](Cc2c[nH]c3ccccc23)C(=O)N[C@@H](CCCCN)C(=O)N[C@@H](Cc2ccc(O)cc2)C(=O)N2CCC[C@H]2C(=O)N[C@@H](Cc2c[nH]c3ccccc23)C(=O)N1)C(=O)O` [N13G], the IC50 was found to be 280 nM in test [1], 287 nM in test [2] and 287 nM in test [3].
